Article PMC6321291, “Synthesis, Biological Evaluation and Docking Studies of Benzoxazoles Derived from Thymoquinone” (Molecules, 2018)
pIC50: −log10 of the molar value.

Columns and labels:
[1] = system: SW620 (colorectal adenocarcinoma, metastatic); assay: MTT assay, SW620; type: cell-based; settings: Homo sapiens, SW-620, 72 h
Procedure: (§1) The tested compounds were dissolved in DMSO in five, 10-fold dilutions (0.01–100 µM). The cell lines HeLa (cervical carcinoma), SW620 (colorectal adenocarcinoma, metastatic), HepG2 (hepatocellular carcinoma), CFPAC-1 (ductal pancreatic adenocarcinoma), and WI38 (human lung fibroblast cell line), were cultured as monolayers and maintained in Dulbecco’s modified Eagle medium (DMEM) supplemented with 10% fetal bovine serum (FBS), 2 mM L-glutamine, 100 U mL^−1 penicillin and 100 μg mL^−1 streptomycin in a humidified atmosphere with 5% CO2 at 37 °C.
(§2) The MTT assay was used for evaluation of effects of tested compounds on viability of carcinoma and control cell lines. About 5000 cells per well were seeded onto a series of standard 96-well plates on day 0. Test agents were then added and incubated for further 72 h. Working dilutions of tested compounds were freshly prepared in the growth medium, on the day of testing. The solvent (DMSO) was also tested for eventual inhibitory activity by adjusting its concentration to be the same as in the working concentrations (DMSO concentration never exceeded 0.1%). After 72 h of incubation, the cell growth rate was evaluated by performing the MTT assay: experimentally determined absorbance values were transformed into a cell percentage growth (PG) using the formulas proposed by NIH and described previously. This method directly relies on control cells number at the day of assay because it compares the growth of treated cells with the growth of untreated cells in control wells on the same plate, the results are therefore a percentile difference from the calculated expected value.
(§3) If, however, all of the tested concentrations produce PGs exceeding the respective reference level of effect (e.g., PG value of 50) for a given cell line, the highest tested concentration is assigned as the default value (in the screening data report that default value is preceded by a “>” sign). Each test point was performed in quadruplicate in three individual experiments. The results were statistically analyzed (Analysis of variance (ANOVA), Tukey post-hoc test at p < 0.05). Finally, the effects of the tested substances were evaluated by plotting the mean percentage growth for each cell type in comparison to control on dose response graphs.

[2] = system: CFPAC-1 (ductal pancreatic adenocarcinoma); assay: MTT assay, CFPAC-1; type: cell-based; settings: Homo sapiens, 72 h
Procedure: as §1, §2, §3

[3] = system: HepG2 (hepatocellular carcinoma); assay: MTT assay, HepG2; type: cell-based; settings: Homo sapiens, 72 h
Procedure: as §1, §2, §3

[4] = system: HeLa (cervical carcinoma); assay: MTT assay, HeLa; type: cell-based; settings: Homo sapiens, 72 h
Procedure: as §1, §2, §3

[5] = MTT assay, WI38 healthy control; type: cell-based; settings: WI38 human lung fibroblast cells, WI38 healthy control human fibroblast cell line
Procedure: as §1, §2, §3

phospho (Ser 473) Akt [6] = assay: Western blot, pAkt in HeLa cells; type: cell-based, human; settings: IC50 concentration, 24 h and 48 h
Procedure: (§4) Protein lysates were lysed in the buffer 50 mM Tris HCl (pH 8), 150 mM NaCl, 1% NP-40, 0.5% sodium deoxycholate, 0.1% SDS and protease and phosphatase inhibitor cocktail (Roche, Basel, Switzerland). A total of 50 μg of proteins were resolved on 10% SDS polyacrylamide gels by use of Mini-protean cell (Bio-Rad, Hercules, CA, USA). Membranes were incubated with primary antibodies against phospho (Tyr 1135) -IGF1 Receptor β (1:1000, rabbit mAb, Cell Signalling Technology, Danvers, MA, USA), phospho (Ser 473) Akt (1:1000, rabbit mAb, Cell Signalling Technology) and α tubulin (1:1000, mouse mAb, Sigma Aldrich) at 4 °C overnight. Secondary antibody linked to anti-mouse was used at 1:1000 (Dako, Santa Clara, CA, USA) and to anti-rabbit at 1:1000 (Dako). Signals were visualized by Western Lightening Chemiluminescence Reagent Plus Kit (Perkin Elmer, USA) on the ImageQuant LAS500 (GE Healthcare, Chicago, IL, USA). Signal intensities of particular bands were normalized with the intensity of the loading control α tubulin and compared in Quantity One software (Bio-Rad). The values are expressed as average value of three independent experiments ± standard error of the mean. Statistical analysis was performed in Microsoft Excel (Microsoft Corporation, Redmond, WA, USA) by using the ANOVA (p < 0.05).

phospho (Ser 473) Akt [7] = assay: Western blot, pAkt in HepG2 cells; type: cell-based, human; settings: IC50 concentration, 24 h and 48 h
Procedure: as §4

[8] = system: phospho (Tyr 1135) -IGF1 Receptor β; assay: Western blot, IGF1 Receptor β activated form in HeLa cells; type: cell-based, human; settings: IC50 concentration, 24 and 48 h treatments
Procedure: as §4

[9] = system: phospho (Tyr 1135) -IGF1 Receptor β; assay: Western blot, IGF1 Receptor β activated form in HepG2 cells; type: cell-based, human; settings: IC50 concentration, 24 and 48 h treatments
Procedure: as §4

pIC50 [1]: 4.10 | pIC50 [2]: 4.31 | pIC50 [3]: 4.40 | pIC50 [4]: 4.37 | IC50 at 72 h [5]: > 100 µM
Compound: Cc1c(O)cc(C(C)C)c2oc(-c3ccc(Cl)cc3)nc12 [1e, 2-(4-Chlorophenyl)-4-methyl-7-isopropyl-1,3-benzoxazole-5-ol]
inhibition of Akt phosphorylation (western blot) (phospho (Ser 473) Akt [6]): weak, time and concentration dependent inhibition | inhibition of Akt phosphorylation (western blot) (phospho (Ser 473) Akt [7]): weak, time and concentration dependent inhibition | IGF1 Receptor β activated form expression (western blot) [8]: no significant changes | IGF1 Receptor β activated form expression (western blot) [9]: no significant changes
